In US5217960A, “Erythromycin derivatives” (priority 1991, dated 1993):
Converted amounts (≈) assume the structure as drawn. Where two headings read alike, the source gives them in different places.

Columns and labels:
Assay type in all cases: cell-based
ESCHERICHIA COLI JUHL = assay: microbe, parasite or virus in culture
[1] = test system: PSEUDOMONAS AERUGINOSA A5007; assay: In vitro antibacterial activity, agar dilution MIC; details: P. aeruginosa A5007, BHI agar, 35-37° C., 20 to 24 hours
[2] = test system: STAPHYLOCOCCUS AUREUS 642A; assay: In vitro antibacterial activity, agar dilution MIC; details: 24 h
[3] = test system: STAPHYLOCOCCUS AUREUS 1775; assay: In vitro antibacterial activity, agar dilution MIC
[4] = test system: PROVIDENCIA STUARTII CMX 640; assay: microbe, parasite or virus in culture; details: P. stuartii CMX 640, BHI agar, 35-37° C., 20 to 24 hours
[5] = test system: KLEBSIELLA PNEUMONIAE ATCC 8045; assay: In vitro antibacterial activity, agar dilution MIC; details: ATCC8045, K. pneumoniae ATCC 8045, BHI agar, 35-37° C., 20 to 24 hours, read-out: MIC
ESCHERICHIA COLI SS = assay: In vitro antibacterial activity, agar dilution MIC
[6] = test system: STREPTOCOCCUS PYOGENES 930 CONST; assay: In vitro antibacterial activity, agar dilution MIC
ESCHERICHIA COLI KNK 437 = assay: microbe, parasite or virus in culture
[7] = test system: STAPHYLOCOCCUS AUREUS A5177; assay: In vitro antibacterial activity, agar dilution MIC
[8] = test system: STAPHYLOCOCCUS AUREUS NCTC 10649; assay: In vitro antibacterial activity, agar dilution MIC; details: NCTC10649, 24 h
STR[…] EES61 = assay: In vitro antibacterial activity, agar dilution MIC; details: Streptococcus pyogenes, 24 h
Method: (§1) Representative compounds of the present invention were assayed in vitro for antibacterial activity as follows: Twelve petri dishes containing successive aqueous dilutions of the test compound mixed with 10 ml of sterilized Brain Heart Infusion (BHI) agar (Difco 0418-01-5) were prepared. Each plate was inoculated with 1:100 (or 1:10 for slow-growing strains, such as Micrococcus and Streptococcus) dilutions of up to 32 different microorganisms, using a Steers replicator block. The inoculated plates were incubated at 35°-37° C. for 20 to 24 hours. In addition, a control plate, using BHI agar containing no test compound, was prepared and incubated at the beginning and end of each test.
(§2) An additional plate containing a compound having known susceptibility patterns for the organisms being tested and belonging to the same antibiotic class as the test compound was also prepared and incubated as a further control, as well as to provide test-to-test comparability. Erythromycin A was used for this purpose.
(§3) After incubation, each disk was read. The minimum inhibitory concentration (MIC) was defined as the lowest concentration of drug yielding no growth, a slight haze, or sparsely isolated colonies on the inoculum spot as compared to the growth control.

STR[…] 508 = assay: In vitro antibacterial activity, agar dilution MIC; details: Streptococcus agalactiae, 24 h
Method: as §1, §2, §3

ESCHERICHIA COLI DC-2 = assay: In vitro antibacterial activity, agar dilution MIC; details: E. coli DC-2, BHI agar, 35-37° C., 20 to 24 hours, read-out: MIC
[9] = test system: ENTEROBACTER AEROGENES ATCC 13048; assay: In vitro antibacterial activity, agar dilution MIC; details: Klebsiella aerogenes, ATCC13048; E. aerogenes ATCC 13048; BHI agar, 35-37° C., 20 to 24 hours; read-out: MIC
[10] = test system: STAPHYLOCOCCUS AUREUS CMX 553; assay: In vitro antibacterial activity, agar dilution MIC; details: 24 h
[11] = test system: STAPHYLOCOCCUS EPIDERMIDIS 3519; assay: microbe, parasite or virus in culture
[12] = test system: ACINETOBACTER CALCOACETICUS CMX 669; assay: In vitro antibacterial activity, agar dilution MIC; details: A. calcoaceticus CMX 669, BHI agar, 35-37° C., 20 to 24 hours
ESCHERICHIA COLI H560 = assay: In vitro antibacterial activity, agar dilution MIC; details: E. coli H560, BHI agar, 35-37° C., 20 to 24 hours, read-out: MIC
[13] = test system: PSEUDOMONAS AERUGINOSA K799/61; assay: In vitro antibacterial activity, agar dilution MIC
Method: as §1, §2
(§4) After incubation, each disk was read. The minimum inhibitory concentration (MIC) was defined as the lowest concentration of drug yielding no growth, a slight haze, or sparsely isolated colonies on the inoculum spot as compared to the growth control. The results of this assay, shown below in Tables 1 and 2, support the conclusion that the compounds of the invention are effective antibacterial agents.

M[…] ATCC 9341 = assay: In vitro antibacterial activity, agar dilution MIC; details: Micrococcus luteus, ATCC9341, 24 h
Method: as §1, §2, §4

EN[…] ATCC 8043 = assay: In vitro antibacterial activity, agar dilution MIC; details: Enterococcus faecium, ATCC8043, 24 h
Method: as §1, §2, §4

M[…] ATCC 4698 = assay: In vitro antibacterial activity, agar dilution MIC; details: Micrococcus luteus, ATCC4698, 24 h
Method: as §1, §2, §4

[14] = test system: STREPTOCOCCUS BOVIS A5169; assay: In vitro antibacterial activity, agar dilution MIC
[15] = test system: PSEUDOMONAS AERUGINOSA K799/WT; assay: In vitro antibacterial activity, agar dilution MIC; details: P. aeruginosa K799/WT, BHI agar, 35-37° C., 20 to 24 hours
STAPHYLOCOCCUS AUREUS 45 = assay: In vitro antibacterial activity, agar dilution MIC; details: 24 h
[16] = test system: STREPTOCOCCUS PYOGENES 2548 INDUC; assay: In vitro antibacterial activity, agar dilution MIC; details: S. pyogenes 2548 INDUC, BHI agar, 35-37° C., 20 to 24 hours, read-out: MIC
[17] = test system: STAPHYLOCOCCUS AUREUS ATCC 6538P; assay: In vitro antibacterial activity, agar dilution MIC; details: ATCC6538P, 24 h
[18] = test system: PSEUDOMONAS AERUGINOSA BMH10; assay: In vitro antibacterial activity, agar dilution MIC; details: P. aeruginosa BMH10, BHI agar, 35-37° C., 20 to 24 hours, read-out: MIC
PSEUDOMONAS CEPACIA 296I = assay: In vitro antibacterial activity, agar dilution MIC; details: Burkholderia cepacia

In the case of `CC[C@H]1OC(=O)[C@H](C)[C@@H](O[C@H]2C[C@@](C)(OC)[C@@H](O)[C@H](C)O2)[C@H](C)[C@@H](O[C@@H]2O[C@H](C)C[C@H](N(C)C)[C@H]2O)[C@](C)(O)C[C@@H](C)[C@@H](N(C)C)[C@H](C)[C@@H](O)[C@@]1(O)CO` [Compound 10, (9R)-9-deoxo-9-(N,N-dimethylamino)-21-hydroxyerythromycin A], the MIC (ESCHERICHIA COLI JUHL; E. coli JUHL, BHI agar, 35-37° C., 20 to 24 hours, read-out: MIC) is reported as greater than 100 µg/mL, the MIC [1] is reported as greater than 100 µg/mL and the MIC [2] is reported as 25 µg/mL (≈ 32.1 µM). For the same compound, the MIC ([3]; S. aureus 1775, BHI agar, 35-37° C., 20 to 24 hours, read-out: MIC) was greater than 100 µg/mL, the MIC [4] was greater than 100 µg/mL and the MIC [5] was greater than 100 µg/mL. The MIC (ESCHERICHIA COLI SS; 24 h) was 1.56 µg/mL (≈ 2 µM), the MIC ([6]; S. pyogenes 930 CONST, BHI agar, 35-37° C., 20 to 24 hours, read-out: MIC) was greater than 100 µg/mL and the MIC (ESCHERICHIA COLI KNK 437; E. coli KNK 437, BHI agar, 35-37° C., 20 to 24 hours) was greater than 100 µg/mL. For the same compound, the MIC ([7]; 24 h) was greater than 100 µg/mL, the MIC [8] was 12.5 µg/mL (≈ 16 µM) and the MIC (STR[…] EES61) was 1.56 µg/mL (≈ 2 µM). It also gave an MIC (STR[…] 508) of 3.1 µg/mL (≈ 3.98 µM), an MIC (ESCHERICHIA COLI DC-2) greater than 100 µg/mL and an MIC [9] greater than 100 µg/mL. The MIC [10] was 25 µg/mL (≈ 32.1 µM), the MIC ([11]; 24 h) was 25 µg/mL (≈ 32.1 µM) and the MIC [12] was greater than 100 µg/mL. It also gave an MIC (ESCHERICHIA COLI H560) of 100 µg/mL (≈ 128 µM), an MIC ([13]; P. aeruginosa K799/61, BHI agar, 35-37° C., 20 to 24 hours, read-out: MIC) of 50 µg/mL (≈ 64.2 µM) and an MIC (M[…] ATCC 9341) of 6.2 µg/mL (≈ 7.96 µM). The MIC (EN[…] ATCC 8043) was 12.5 µg/mL (≈ 16 µM), the MIC (M[…] ATCC 4698) was 3.1 µg/mL (≈ 3.98 µM) and the MIC ([14]; 24 h) was 3.1 µg/mL (≈ 3.98 µM). It also gave an MIC [15] greater than 100 µg/mL, an MIC (STAPHYLOCOCCUS AUREUS 45) of 25 µg/mL (≈ 32.1 µM) and an MIC [16] of 100 µg/mL (≈ 128 µM). For the same compound, the MIC [17] was 25 µg/mL (≈ 32.1 µM), the MIC [18] was greater than 100 µg/mL and the MIC (PSEUDOMONAS CEPACIA 296I; P. cepacia 296I, BHI agar, 35-37° C., 20 to 24 hours, read-out: MIC) was greater than 100 µg/mL.
`CC[C@H]1OC(=O)[C@H](C)[C@@H](O[C@H]2C[C@@](C)(OC)[C@@H](O)[C@H](C)O2)[C@H](C)[C@@H](O[C@@H]2O[C@H](C)C[C@H](N(C)C)[C@H]2O)[C@](C)(O)C[C@@H](C)[C@@H](N(C)C)[C@H](C)[C@@H](O)[C@@]1(O)CN(C)Cc1ccccc1` [Compound 16, (9R)-21-(N-benzyl-N-methylamino)-9-deoxo-9-(N,N-dimethylamino)-erythromycinA] gave an MIC (ESCHERICHIA COLI JUHL; 24 h) of 12.5 µg/mL (≈ 14.2 µM), an MIC [1] of 100 µg/mL (≈ 113 µM) and an MIC [2] of 3.1 µg/mL (≈ 3.51 µM). The MIC ([3]; 24 h) was 12.5 µg/mL (≈ 14.2 µM), the MIC [4] was 100 µg/mL (≈ 113 µM) and the MIC [5] was greater than 100 µg/mL. For the same compound, the MIC (ESCHERICHIA COLI SS; E. coli SS, BHI agar, 35-37° C., 20 to 24 hours, read-out: MIC) was 100 µg/mL (≈ 113 µM), the MIC ([6]; 24 h) was 0.78 µg/mL (≈ 0.884 µM) and the MIC (ESCHERICHIA COLI KNK 437; 24 h) was 50 µg/mL (≈ 56.7 µM). For the same compound, the MIC ([7]; S. aureus A5177, BHI agar, 35-37° C., 20 to 24 hours, read-out: MIC) was greater than 100 µg/mL, the MIC [8] was 12.5 µg/mL (≈ 14.2 µM) and the MIC (STR[…] EES61) was 0.39 µg/mL (≈ 0.442 µM). For the same compound, the MIC (STR[…] 508) was 0.1 µg/mL (≈ 0.113 µM), the MIC (ESCHERICHIA COLI DC-2) was 1.56 µg/mL (≈ 1.77 µM) and the MIC [9] was 100 µg/mL (≈ 113 µM). For the same compound, the MIC [10] was 12.5 µg/mL (≈ 14.2 µM), the MIC ([11]; S. epidermidis 3519, BHI agar, 35-37° C., 20 to 24 hours, read-out: MIC) was greater than 100 µg/mL and the MIC [12] was greater than 100 µg/mL. The MIC (ESCHERICHIA COLI H560) was 100 µg/mL (≈ 113 µM), the MIC ([13]; 24 h) was greater than 100 µg/mL and the MIC (M[…] ATCC 9341) was 6.2 µg/mL (≈ 7.03 µM). It also gave an MIC (EN[…] ATCC 8043) of 3.1 µg/mL (≈ 3.51 µM), an MIC (M[…] ATCC 4698) of 0.39 µg/mL (≈ 0.442 µM) and an MIC ([14]; S. bovis A5169, BHI agar, 35-37° C., 20 to 24 hours, read-out: MIC) of 1.56 µg/mL (≈ 1.77 µM). For the same compound, the MIC [15] was greater than 100 µg/mL, the MIC (STAPHYLOCOCCUS AUREUS 45) was 6.2 µg/mL (≈ 7.03 µM) and the MIC [16] was 50 µg/mL (≈ 56.7 µM). For the same compound, the MIC [17] was 12.5 µg/mL (≈ 14.2 µM), the MIC [18] was greater than 100 µg/mL and the MIC (PSEUDOMONAS CEPACIA 296I; 24 h) was 12.5 µg/mL (≈ 14.2 µM).
